Laboratory results taken from patent US20130217132A1, “METHODS, COMPOSITIONS AND USE FOR ENHANCING CHEMICAL TOLERANCE BY MICROORGANISMS” (priority 2009, published 2013).
Where two headings read alike, the source gives them in different places.

Columns and labels:
E. coli LY01 = conditions: starting pH of 6.0, acid at the IC50 obtained at a neutral pH; cited from earlier work
membrane integrity = conditions: cited from earlier work
[1] = furfural vs. furfuryl alcohol; cited from earlier work
[2] = tested on: pBTL-1 Control (blank vector) culture; test: Aerobic growth (specific growth, final OD600) in MOPS minimal media with inhibitor, control; assay type: cell-based, E. coli; conditions: for Specific Growth: n=3
Experimental: (§1) Certain experiments described herein were performed in E. coli BW25113 recA-, with the kanamycin resistance gene removed.
(§2) Cultures were grown in 10 ml MOPS minimal media, 100 μg carbenicillin/ml, and either 1 g furfural/1 supplemented, 2 g HMF/1, or 4 g acetate/1, in 15 ml conical tubes at 37° C. The optical density of 1 ml culture was measured with a spectrophotometer at 600 nm. A natural log transformation of the data was then calculated and then a regression line was fit to the data to calculate specific growth, which is […] to the culture doubling time. The blank vector, pBTL-1, served as the control. The lpcA gene was cloned into the pBTL-1 using standard cloning techniques and primers designed to amplify the gene from template DNA.

pBTL-1 lpcA culture = assay type: cell-based, E. coli; conditions: for Specific Growth: n=3
Experimental: as §1, §2

bacterial cultures = conditions: amino acid 10 mM, acetic acid 2.5 g/L, MOPS minimal medium, FIG. 4
Experimental: In another exemplary method, amino acid supplementation of cultures was observed and illustrated by histogram plot. Overnight cultures were prepared from freezer stocks. Stationary phase overnight cultures were used for a 2.5% inoculation of 5 mL MOPS minimal medium plus carbenicillin. The OD600 was monitored until the culture reached an OD600=0.2. […] Amino acid supplementation was done by preparing stock solutions of amino acids and supplementing the media to a final concentration of 10 mM. Cultures were incubated at 37° C. and were shaken at 225 rpm. OD600 was monitored over the course of exponential growth and final measurements were taken after 24 hours. Specific growth rate was calculated by linear regression on the natural logarithm of the exponential phase OD600 over time.

[3] = tested on: BW25113 ArecA cells overexpressing lpcA gene (pLPCA); assay type: cell-based, E. coli; conditions: for OD600 at 24 hr: pLPCA cells
Experimental: (§3) FIGS. 17A-17B represent methods of identification of a gene related to restoring tolerance. Multiple genome-wide SCALE selection was performed in the presence of ethanol, furfural and acetate respectively. The data set obtained for each compound was compared to the others. Alleles enriched in all cases were identified. […] To restore tolerance, overexpression of identified genes in bacterial cells was performed. For example, lpcA ORF was cloned into the pBTL-1 vector. BW25113 ArecA cells transformed with the blank pBTL-1 vector were used as a control. BW25113 ArecA cells overexpressing lpcA gene were referred to as pLPCA. Cells were inoculated at a standard cell density into MOPS minimal media, supplemented with furfural, acetate or ethanol. After 24 hours, growth of the cells was analyzed.
(§4) The indicated cells were grown in MOPS minimal media supplemented with glucose as a carbon source. Furfural was added to the media at the concentration of 1 g/L. Arabinose was added at 10 mM where indicated to gauge effect of AraC binding. The BW25113 araC::FRT-kan clone corresponds to JW0063, a BW25113 araC knockout mutant ordered from the Keio Collection directly. pBTL-1 represented the blank vector, and pLPCA referred to lpcA gene overexpression. […] To analyze the LPS level in the cells indicated in FIG. 19, LPS are extracted from the cells grown to exponential phase. Loading of LPS for the protein gel is normalized to the cell number. The gel is stained to visualize LPS protein bands after desired separation is obtained.
(§5) BW25113, MG1655, and derivatives were used where indicated. JW0063, an araC mutant of BW25113 was obtained from the Coli Genetic Stock Center (Yale). Overnight bacterial cultures were grown in Luria-Bertani medium with shaking. MOPS minimal medium (previously presented) with 0.2% glucose as a carbon source, was used for all seed cultures and growth studies. Seed cultures were inoculated at 2 v/v % from an overnight culture and were grown to mid-exponential phase. Growth cultures were inoculated with 10 v/v % seed cultures of an OD600 of 0.195-0.200 for an initial optical density of ˜0.02. Carbenicillin and kanamycin were used where appropriate at 100 μg/ml and 30 μg/ml, respectively. The pBTL-1 vector (previously described) was used as the control blank vector for all growth studies. Genome-wide furfural selection

[4] = tested on: BW25113 ArecA cells transformed with the blank pBTL-1 vector; assay type: cell-based, E. coli; conditions: control cells
Experimental: as §3, §4, §5

E. coli MC1022 = conditions: cited from earlier work
E. coli = conditions: cited from earlier work
cell growth = conditions: concentrations as low as, cited from earlier work
[5] = aerobic growth in 2 g/L hydroxymethyl furfural
[6] = aerobic growth in 4 g/L acetate

For `CC(=O)CCC(=O)O` [levulinic acid], the “growth rate, percent that of control growth” value (“growth rate, percent that” for short) (E. coli LY01) is listed as 10%.
In the case of `OCc1ccco1` [furfuryl alcohol], the membrane leakage (membrane integrity) is given as “significant membrane leakage” and the “toxicity on a concentration basis” value [1] is given as ~20 g/L.
For `O=CO` [formic acid], the “growth rate, percent that” value (E. coli LY01) is given as 35%.
With `O=Cc1ccc(CO)o1` [hydroxymethyl furfural, 5-(hydroxymethyl)-2-furaldehyde] the “Final OD600 (24 hr)” value [2, 5] was 0.170, the “Specific Growth” value [2, 5] was 0.045 h⁻¹ and the “Final OD600 (24 hr)” value (pBTL-1 lpcA culture; [5]) was 1.014. The “Specific Growth” value (pBTL-1 lpcA culture; [5]) was 0.234 h⁻¹.
With `N=C(N)NCCC[C@H](N)C(=O)O` [arginine] the “effect of amino acid supplementation on growth rate” value (bacterial cultures) was “greatest increase in growth rate”.
For `O=C(O)c1ccco1` [2-furoic acid], the membrane leakage (membrane integrity) is given as “significant membrane leakage”.
For `CCO` [ethanol], the “improvement of final optical density by pLPCA in BW25113” value ([3]; ethanol 25 g/l) was 37±3%, the “OD600 at 24 hr” value ([3]; 25 g/L of ethanol) was 1.0 and the “OD600 at 24 hr” value ([4]; 25 g/L of ethanol) was 0.4.
For `CSCC[C@H](N)C(=O)O` [methionine], the “effect of amino acid supplementation on growth rate” value (bacterial cultures) was “greatest increase in growth rate”.
In the case of `COc1cc(C=O)ccc1O` [vanillin, 4-hydroxy-3-methoxybenzaldehyde], the “share of the population with membrane destabilization” value (E. coli MC1022; treatment for one hour at over three times the minimum inhibitory concentration) is given as 29% and the “share of the population with membrane destabilization” value (E. coli MC1022; when grown overnight after treatment) is given as 13%.
For `CC(=O)C=O` [Methylgloxal], the “concentration inhibiting E. coli growth and protein synthesis” value (E. coli) is listed as 0.07 g/L.
With `CC(=O)O` [acetate, acetic acid] the “improvement of final optical density by pLPCA in BW25113” value ([3]; acetate 5 g/l) was 47±4%, the “OD600 at 24 hr” value ([3]; 10 g/L of acetate) was 1.4 and the “OD600 at 24 hr” value ([4]; 10 g/L of acetate) was 0.75. The “Final OD600 (24 hr)” value [2, 6] was 0.111, the “Specific Growth” value [2, 6] was 0.067 h⁻¹ and the “Final OD600 (24 hr)” value (pBTL-1 lpcA culture; [6]) was 0.324. The “Specific Growth” value (pBTL-1 lpcA culture; [6]) was 0.126 h⁻¹, the “concentration that retards growth” value (cell growth) was 0.5 g/L and the “acetate concentration shown to inhibit cell growth by 50%” value (cell growth; minimal media) was 0.5 g/L. The “growth rate, percent that” value (E. coli LY01) was 0%.
